# Source: article PMC10607100, “Anticancer and Antiphytopathogenic Activity of Fluorinated Isatins and Their Water-Soluble Hydrazone Derivatives” (International Journal of Molecular Sciences, 2023)
# Read-outs that look alike come from different tables or passages of the source.
# Tests used:
# [1] = system: Micrococcus luteus B-109; assay: Agar-well diffusion, bactericidal activity; format: cell-based; conditions: Micrococcus luteus
# Method in brief: (§1)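 Bacteria spread on agar (BP medium; GYCa for X. campestris; pH 7.2–7.4) with 6-mm wells, each receiving 150 μL compound solution. Cultures grown at 28 °C; growth-inhibition zone width measured after 36–40 h.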
# [2] = system: Pectobacterium atrosepticum 1043; assay: Agar-well diffusion, bactericidal activity; format: cell-based; conditions: Pectobacterium atrosepticum, 1043, 2 mM/L
# Method in brief: as §1
# [3] = system: Pectobacterium carotovorum subsp. carotovorum MI; assay: Agar-well diffusion, bactericidal activity; format: cell-based; conditions: Pectobacterium carotovorum, 2 mM/L
# Method in brief: as §1
# [4] = system: Pseudomonas fluorescens EL-2.1; assay: Agar-well diffusion, bactericidal activity; format: cell-based; conditions: Pseudomonas fluorescens, EL2.1, 2 mM/L
# Method in brief: as §1
# [5] = system: Xanthomonas campestris B-610; assay: Agar-well diffusion, bactericidal activity; format: cell-based; conditions: Xanthomonas campestris
# Method in brief: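 Agar-well diffusion on GYCa agar (pH 7.2–7.4) seeded with bacterial suspension; 150 μL compound solution placed in 6-mm wells. Inhibition zone width measured after 36–40 h incubation.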
# [6] = system: five representative phytopathogens; assay: Agar-well diffusion, bactericidal activity over the panel of phytopathogens; format: cell-based; conditions: for zone of inhibition at 2000 µM: 36 h, 2 mM solutions, dependent on the test system used, read-out: inhibition zone width (mm), range over the test systems
# Method in brief: as §1
# [7] = system: Fusarium oxysporum IBPPM 543; assay: Mycelial radial growth inhibition; format: cell-based; conditions: Fusarium oxysporum; for inhibition of growth at 1 µM: 1 nmol/mL; for inhibition of growth at 1 µM / inhibition of growth at 5 µM / inhibition of growth at 20 µM / inhibition of growth at 40 µM: read-out: Inhibition value, I (%); for inhibition of growth at 5 µM: 5 nmol/mL; for inhibition of growth at 20 µM: 20 nmol/mL; for inhibition of growth at 40 µM: 40 nmol/mL; for EC50: day 5, read-out: EC50, µg/mL at Day 5, F. oxysporum
# Method in brief: (§2)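 Compounds mixed into molten GPY agar at various concentrations; centre inoculated with a 5-mm mycelial plug from 10-day cultures and incubated at 27 °C. Colony diameter compared with untreated control until control plate was covered (usually 12 days); ≥4 replicates in two experiments.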
# [8] = system: Phytophthora cactorum VKM F-985; assay: Mycelial radial growth inhibition; format: cell-based; conditions: for inhibition of growth at 1 µM / inhibition of growth at 5 µM / inhibition of growth at 15 µM / inhibition of growth / inhibition of growth at 40 µM / EC50 / inhibition of growth at 3 µM / inhibition of growth at 7 µM: Phytophthora cactorum; for inhibition of growth at 1 µM: 1 nmol/mL; for inhibition of growth at 1 µM / inhibition of growth at 5 µM / inhibition of growth at 15 µM / inhibition of growth / inhibition of growth at 40 µM / inhibition of growth at 3 µM / inhibition of growth at 7 µM: read-out: Inhibition value, I (%); for inhibition of growth at 5 µM: 5 nmol/mL; for inhibition of growth at 15 µM: 15 nmol/mL; for inhibition of growth: 27 nmol/mL; for inhibition of growth at 40 µM: 40 nmol/mL; for EC50: read-out: EC50, µg/mL at Day 5, P. cactorum; for inhibition of growth at 3 µM: 3 nmol/mL; for inhibition of growth at 7 µM: 7 nmol/mL
# Method in brief: as §2
# [9] = B109, 2 mM/L, average of 3 experiments, read-out: width of the inhibition zone (mm), M. luteus
# [10] = average of 3 experiments, read-out: width of the inhibition zone (mm), P. atrosepticum
# [11] = Table S3, read-out: Inhibition zone width (mm), not less
# [12] = average of 3 experiments, read-out: width of the inhibition zone (mm), P. carotovorum subsp. carotovorum
# [13] = average of 3 experiments, read-out: width of the inhibition zone (mm), Ps. fluorescens
# [14] = B610, 2 mM/L, average of 3 experiments, read-out: width of the inhibition zone (mm), X. campestris
# [15] = B610, Table S3, 2 mM/L, read-out: Inhibition zone width (mm), not less
# [16] = IBPPM543, 72 h, age of the fungus 3 days
# [17] = IBPPM543, 120 h, age of the fungus 5 days
# [18] = IBPPM543, 168 h, age of the fungus 7 days
# [19] = IBPPM543, 216 h, age of the fungus 9 days
# [20] = 120 h, age of the fungus 5 days
# [21] = 168 h, age of the fungus 7 days
# [22] = 216 h, age of the fungus 9 days
smiles,measurement,setting,value
"O=C(C[n+]1ccccc1)NN=C1C(=O)N(Cc2c(F)c(F)c(F)c(F)c2F)c2ccc(F)cc21.[Cl-] [Compound 5d, 1-(2-(2-(5-Fluoro-2-oxo-1-((perfluorophenyl)methyl)indolin-3-ylidene)hydrazinyl)-2-oxoethyl)pyridin-1-ium chloride]",zone of inhibition at 2000 µM,[1]; [9],3 mm
same,zone of inhibition at 2000 µM,"[1]; B109, Table S3, 2 mM/L, read-out: Inhibition zone width (mm), not less",≥ 3 mm
same,zone of inhibition at 2000 µM,[2]; [10],4 mm
same,zone of inhibition at 2000 µM,[2]; [11],≥ 4 mm
same,zone of inhibition at 2000 µM,[3]; [12],4 mm
same,zone of inhibition at 2000 µM,[3]; [11],≥ 4 mm
same,zone of inhibition at 2000 µM,[4]; [13],2 mm
same,zone of inhibition at 2000 µM,[4]; [11],≥ 2 mm
same,zone of inhibition at 2000 µM,[5]; [14],4 mm
same,zone of inhibition at 2000 µM,[5]; [15],≥ 4 mm
same,zone of inhibition at 2000 µM,[6],2 to 4 mm
same,bactericidal activity,[6]; Table S2,moderate bactericidal activity
same,inhibition of growth at 1 µM,[7]; [16],9%
same,inhibition of growth at 5 µM,[7]; [16],33%
same,inhibition of growth at 20 µM,[7]; [16],35%
same,inhibition of growth at 40 µM,[7]; [16],49%
same,EC50,"[7]; IBPPM543, 120 h",17.4 µg/mL
same,inhibition of growth at 1 µM,[7]; [17],10%
same,inhibition of growth at 5 µM,[7]; [17],24%
same,inhibition of growth at 20 µM,[7]; [17],37%
same,inhibition of growth at 40 µM,[7]; [17],54%
same,inhibition of growth at 1 µM,[7]; [18],10%
same,inhibition of growth at 5 µM,[7]; [18],23%
same,inhibition of growth at 20 µM,[7]; [18],32%
same,inhibition of growth at 40 µM,[7]; [18],41%
same,inhibition of growth at 1 µM,[7]; [19],0%
same,inhibition of growth at 5 µM,[7]; [19],16%
same,inhibition of growth at 20 µM,[7]; [19],18%
same,inhibition of growth at 40 µM,[7]; [19],36%
same,inhibition of growth at 1 µM,"[8]; 72 h, age of the fungus 3 days",15%
same,inhibition of growth at 5 µM,"[8]; 72 h, age of the fungus 3 days",20%
same,inhibition of growth at 15 µM,"[8]; 72 h, age of the fungus 3 days",26%
same,inhibition of growth,"[8]; 72 h, age of the fungus 3 days",28%
same,inhibition of growth at 40 µM,"[8]; 72 h, age of the fungus 3 days",35%
same,EC50,"[8]; 120 h, day 5",24.7 µg/mL
same,inhibition of growth at 1 µM,[8]; [20],12%
same,inhibition of growth at 5 µM,[8]; [20],19%
same,inhibition of growth at 15 µM,[8]; [20],28%
same,inhibition of growth,[8]; [20],32%
same,inhibition of growth at 40 µM,[8]; [20],43%
same,inhibition of growth at 1 µM,[8]; [21],10%
same,inhibition of growth at 5 µM,[8]; [21],16%
same,inhibition of growth at 15 µM,[8]; [21],23%
same,inhibition of growth,[8]; [21],25%
same,inhibition of growth at 40 µM,[8]; [21],33%
same,inhibition of growth at 1 µM,[8]; [22],8%
same,inhibition of growth at 5 µM,[8]; [22],11%
same,inhibition of growth at 15 µM,[8]; [22],13%
same,inhibition of growth,[8]; [22],22%
same,inhibition of growth at 40 µM,[8]; [22],29%
same,melting point,,165 to 166 °C
"O=C(C[n+]1ccccc1)NN=C1C(=O)N(Cc2cccc(C(F)(F)F)c2)c2ccc(F)cc21.[Cl-] [Compound 5c, 1-(2-(2-(5-Fluoro-2-oxo-1-(3-(trifluoromethyl)benzyl)indolin-3-ylidene)hydrazinyl)-2-oxoethyl)pyridin-1-ium chloride]",zone of inhibition at 2000 µM,[1]; [9],4 mm
same,zone of inhibition at 2000 µM,[2]; [10],5 mm
same,zone of inhibition at 2000 µM,[2]; [11],≥ 5 mm
same,zone of inhibition at 2000 µM,[3]; [12],5 mm
same,zone of inhibition at 2000 µM,[3]; [11],≥ 5 mm
same,zone of inhibition at 2000 µM,[4]; [13],5 mm
same,zone of inhibition at 2000 µM,[4]; [11],≥ 5 mm
same,zone of inhibition at 2000 µM,[5]; [14],7 mm
same,zone of inhibition at 2000 µM,[5]; [15],≥ 7 mm
same,zone of inhibition at 2000 µM,[6],4 to 7 mm
same,inhibition of growth at 1 µM,[7]; [16],22%
same,inhibition of growth at 5 µM,[7]; [16],40%
same,inhibition of growth at 20 µM,[7]; [16],49%
same,inhibition of growth at 40 µM,[7]; [16],57%
same,EC50,"[7]; IBPPM543, 120 h",14.9 µg/mL
same,inhibition of growth at 1 µM,[7]; [17],19%
same,inhibition of growth at 5 µM,[7]; [17],36%
same,inhibition of growth at 20 µM,[7]; [17],45%
same,inhibition of growth at 40 µM,[7]; [17],55%
same,inhibition of growth at 1 µM,[7]; [18],13%
same,inhibition of growth at 5 µM,[7]; [18],28%
same,inhibition of growth at 20 µM,[7]; [18],35%
same,inhibition of growth at 40 µM,[7]; [18],52%
same,inhibition of growth at 1 µM,[7]; [19],3%
same,inhibition of growth at 20 µM,[7]; [19],21%
same,inhibition of growth at 40 µM,[7]; [19],51%
same,antagonistic effect superior to that of N-cetylpyridinium chloride,[8]; 5 days of growth,2.3 times
same,inhibition of growth at 3 µM,"[8]; 72 h, age of the fungus 3 days",7%
same,inhibition of growth at 7 µM,"[8]; 72 h, age of the fungus 3 days",13%
same,inhibition of growth,"[8]; 72 h, age of the fungus 3 days",36%
same,inhibition of growth at 40 µM,"[8]; 72 h, age of the fungus 3 days",55%
same,EC50,"[8]; 120 h, day 5",15 µg/mL
same,inhibition of growth at 3 µM,[8]; [20],8%
same,inhibition of growth at 7 µM,[8]; [20],21%
same,inhibition of growth,[8]; [20],38%
same,inhibition of growth at 40 µM,[8]; [20],64%
same,inhibition of growth at 3 µM,[8]; [21],4%
same,inhibition of growth at 7 µM,[8]; [21],14%
same,inhibition of growth,[8]; [21],29%
same,inhibition of growth at 40 µM,[8]; [21],42%
same,inhibition of growth at 3 µM,[8]; [22],3%
same,inhibition of growth at 7 µM,[8]; [22],12%
same,inhibition of growth,[8]; [22],18%
same,inhibition of growth at 40 µM,[8]; [22],36%
same,"EC50, µg/mL at Day 5, P. cactorum",[8]; day 5,15.40 µg/mL
same,melting point,,172 to 173 °C
